In patent US20210177982A1, “MUCUS-PENETRATING PEPTIDES, DELIVERY VEHICLES AND METHODS OF THERAPY” (DNALite Therapeutics, Inc., priority 2018, published 2021):

Experiments:
[1] = 25° C., RP-HPLC, Ac-X-G-A-K-G-A-G-V-G L-amide; cited from earlier work
[2] = pH 7 (No salt); cited from earlier work
[3] = system: mucin from porcine stomach; assay: Peptide mucin interaction assay (dynamic light scattering); assay type: binding; details: peptide conjugated to DSPE-PEG2k-DBCO at 0.08% mol on MVL5/DOPC/Chol base system with DNA; 0.5 mg/mL mucin, sample:mucin 5:2
Procedure: DSPE-PEG2k-DBCO (Avanti Polar Lipids) was hydrated in water and agitated to form a transparent solution. Synthesized peptides with a lysine containing an azide on the N-terminus were conjugated to it. 2.5× moles of the azide peptides were added to the lipid mix and were left to react overnight. 10× moles of sodium azide were added to the reaction to quench it.
Thin film hydration was used to make a lipid base system composed of MVL5/DOPC/Chol (30/60/10% mol). Briefly, the lipids were dissolved in chloroform: methanol (9:1) and mixed. The lipids were then dried using a rotovap and hydrated in a HEPES-glucose buffer (10 mM HEPES, 230 mM Glucose, pH 7.4) for a final concentration of 1 mM. The lipid suspension was extruded through a 200 nm pore size filter for 20 passes using the NanoSizer MINI (T&T Scientific Corporation, Tennessee). An appropriate amount of DNA was added to the lipid base system for a charge ratio of +3 (assuming MVL5 has a charge ratio of +3 at neutral pH) and the solution was mixed thoroughly and let rest for 20 min. DSPE-PEG2k-DBCO conjugated peptides were added to the base system for a final lipid concentration of 0.08% mol. DSPE-SS-PEG2k was added to the base system for a final lipid concentration of 5% mol. The solutions were incubated for 1 h at 60° C.
For each sample, purified 0.5 mg/mL mucin from porcine stomach (Sigma Aldrich) was added to the sample at a sample:mucin volume ratio of 5:2. Dynamic light scattering was used to measure changes in light scattering in the presence of and without mucin for each sample. […] Thus SEQ ID NO. […] Thus SEQ ID NO. […] Thus SEQ ID NO. […] 4 conjugated systems, where peak shifting was not observed in the presence of mucin. Thus SEQ ID NO. […] 5 conjugated systems where peak shifting was not observed in the presence of mucin. Thus SEQ ID NO. […] 6 conjugated systems where peak shifting was not observed in the presence of mucin. Thus SEQ ID NO. […] FIG. 11 show SEQ ID NO. 7 conjugated systems where peak shifting was not observed in the presence of mucin. Thus SEQ ID NO. […] Thus SEQ ID NO. […] Thus SEQ ID NO. […] Thus, SEQ ID NO. […] Thus SEQ ID NO. […] FIG. 16 show SEQ ID NO. […] Thus SEQ ID NO.

Compound | ΔtR(Gly), pH 2, 20 mM H3PO4 [1] | ΔtR(Gly), pH 2, 20 mM TFA [1] | ΔtR(Gly), pH 5, 10 mM PO4 Buffer [1] | ΔtR(Gly), pH 7, 10 mM PO4 Buffer +50 mM NaCl [1] | ΔtR(Gly), pH 7, 10 mM PO4 Buffer +50 mM NaClO4 [1] | ΔtR(Gly), pH 7, 10 mM PO4 Buffer, No Salt [1] | Fauchere Score [2] | interaction with mucin (shift in DLS light intensity peak) [3]
C[C@H](N)C(=O)O [Ala] | 3.6 | 2.8 | 3.3 | 4.1 | 3.4 | 3.9 | 0.3 | –
N=C(N)NCCC[C@H](N)C(=O)O [Arg] | −5.0 | 0.6 | −3.7 | 4.1 | 6.4 | 3.9 | −1.010 | –
NC(=O)C[C@H](N)C(=O)O [Asn] | 0.0 | −0.6 | 0.0 | 1.0 | 30.8 | 0.5 | −0.600 | –
N[C@@H](CC(=O)O)C(=O)O [Asp] | 2.2 | 1.6 | −1.0 | −0.8 | −7.6 | −0.9 | −0.770 | –
N[C@@H](CS)C(=O)O [Cys] | 8.1 | 7.6 | 7.9 | 9.1 | 8.2 | 8.3 | – | –
NC(=O)CC[C@H](N)C(=O)O [Gln] | 0.5 | 0.6 | 0.6 | 1.6 | 0.0 | 0.5 | −0.220 | –
N[C@@H](CCC(=O)O)C(=O)O [Glu] | 3.6 | 2.8 | −0.5 | −0.4 | −7.1 | −0.9 | −0.640 | –
NCC(=O)O [Gly, Glycine] | 0.0 | 0.0 | 0.0 | 0.0 | 0.0 | 0.0 | 0 | –
N[C@@H](Cc1c[nH]cn1)C(=O)O [His] | −7.0 | 0.0 | −5.1 | 4.7 | 3.4 | 3.4 | 0.130 | –
CC[C@H](C)[C@H](N)C(=O)O [Ile] | 21.3 | 21.4 | 22.2 | 22.8 | 23.0 | 22.4 | 1.8 | –
CC(C)C[C@H](N)C(=O)O [Leu] | 23.4 | 23.3 | 24.1 | 24.6 | 25.1 | 24.2 | 1.7 | –
NCCCC[C@H](N)C(=O)O [Lys] | −7.0 | 2.8 | −3.7 | −2.0 | 3.4 | −1.1 | −0.990 | –
CSCC[C@H](N)C(=O)O [Met] | 16.1 | 15.7 | 16.4 | 17.3 | 16.8 | 16.3 | 1.230 | –
N[C@@H](Cc1ccccc1)C(=O)O [Phe] | 29.1 | 29.1 | 30.1 | 30.1 | 30.8 | 29.9 | 1.79 | –
N[C@@H](CO)C(=O)O [Ser] | 0.0 | 0.0 | 0.0 | 1.2 | 30.5 | 0.5 | – | –
CCCC[C@H](N)C(=O)O [n-Leu, norleucine] | 24.6 | 24.6 | 25.6 | 25.9 | 26.6 | 25.6 | – | –
CCC[C@H](N)C(=O)O [n-Val, norvaline] | 15.4 | 15.2 | 15.9 | 16.9 | 16.8 | 16.3 | – | –
ADDLENVNEGMRIH [SEQ ID NO. 21] | – | – | – | – | – | – | – | found to not be mucin interacting
DATDRFHGPDAL [SEQ ID NO. 26] | – | – | – | – | – | – | – | found to be mucin interacting
DPVDTPNPTRRKPGK [SEQ ID NO. 24] | – | – | – | – | – | – | – | found to be mucin interacting
EPDNWSLDFPRR [SEQ ID NO. 8] | – | – | – | – | – | – | – | found to interact with mucin
